From US4067990A, “Process for the preparation of insecticidal compositions based on carbamic esters” (Airwick Industries, Inc., priority 1971, dated 1978)
Where two headings read alike, the source gives them in different places.

Assays:
[1] = at 25° C
[2] = Dissolution capacity of diluents/solvents for Dioxacarb and Arprocarb; type: physicochemical
[3] = at 20° C, solute Arprocarb, footnotes

| Molecule | Vapour pressure [1] | Dissolution capacity for DIOXACARB ([2]; at 20° C, solute Dioxacarb) [weight %] | Dissolving capacity for Dioxacarb ([2]; at 20° C, solute Dioxacarb) | further results |
| --- | --- | --- | --- | --- |
| COCCO [2-Methoxyethanol] | 8.6 Torr | – | – | Dissolution capacity for DIOXACARB [2]: 15 weight %; Dissolving capacity for Dioxacarb [2]: about 15% |
| ClCCl [Dichloromethane] | 420 Torr | – | – | Dissolution capacity for ARPROCARB [2]: 48 weight %; Dissolution capacity for DIOXACARB [2]: 45 weight %; Dissolving capacity for Arprocarb [2]: approximately 48%; Dissolving capacity for Dioxacarb [2]: 45% |
| CCCC(=O)OCC [Ethylbutyrate] | 17 Torr | 7 | – | – |
| CC#N [Acetonitrile] | 86 Torr | 35.5 | 35.5% | – |
| CCC(C)=O [Methylethylketone] | 20 Torr | 5 | – | – |
| CCCCCCC [Heptane] | 38.5 Torr | – | about 0.2% | Dissolution capacity for ARPROCARB ([2]; at 20° C, solute Arprocarb): 0.3 weight %; Dissolving capacity for Arprocarb [2, 3]: 0.3% |
| CC(Cl)(Cl)Cl [1.1.1-Trichloro-ethane] | 121 Torr | 2.3 | 2.3% | – |
| CCC(C)OC(C)=O (centres unmarked) [sec. Butylacetate] | 26 Torr | 6 | – | – |
| c1ccccc1 [Benzene] | – | – | – | Dissolution capacity for DIOXACARB [2]: 3 weight %; Dissolving capacity for Dioxacarb [2]: 3% |
| ClC(Cl)Cl [Trichloromethane] | 194 Torr | – | – | Vapour pressure ([1]; listed as Chloroform): 194 Torr; Dissolution capacity for DIOXACARB [2]: 34 weight %; Dissolving capacity for Dioxacarb [2]: 34% |
| CC(=O)OC(C)C [Isopropylacetate] | 55 Torr | 6 | – | – |
| CCCCCCCCCCCCCCBr [1-Bromotetradecane] | < 0.001 Torr | 0.1 | – | Vapour pressure ([1]; listed as 1-bromotetradecane): < 0.005 Torr |
| CO [Methanol] | 127 Torr | 20.5 | 20.5% | – |
| C1COCCO1 [Dioxan] | 35 Torr | 23 | 23% | – |
| CCCCCCCC/C=C\CCCCCCCC(=O)O [Oleic acid] | 0.0002 Torr | 1.2 | – | – |
| CCCCCCCC/C=C/CCCCCCCC(=O)CCCCCCC/C=C/CCCCCCCC [Oleone] | < 10^-6 Torr | 0.2 | – | – |
| CCCCCCCCOC(=O)c1ccccc1C(=O)OCCCCCCCC [Dioctylphthalate] | < 0.0001 Torr | 0.1 | 0.1% | Vapour pressure ([1]; listed as Dioctyl phthalate): below 0.0001 Torr; Vapour pressure ([1]; listed as dioctylphthalate): < 0.005 Torr; Dissolution capacity for ARPROCARB ([2]; at 20° C, solute Arprocarb): 2.6 weight %; Dissolving capacity for Arprocarb [2, 3]: 2.6% |
| CCCCCC [Hexane] | 151 Torr | 0.2 | approximately 0.2% | Dissolution capacity for ARPROCARB ([2]; at 20° C, solute Arprocarb): 0.3 weight %; Dissolving capacity for Arprocarb [2, 3]: 0.3% |
| C[N+](=O)[O-] [Nitromethane] | 34 Torr | 27.5 | 27.5% | – |
| CCOCCOCCOC(C)Oc1ccc2c(c1)OCO2 (centres unmarked) [T.U.O.B., 5-(3,6,9-trioxa-undecyl-2-oxy)-1,3-benzodioxole] | < 0.005 Torr | 2.9 | 2.9% | Dissolution capacity for ARPROCARB ([2]; at 20° C, solute Arprocarb): 5.0 weight %; Dissolving capacity for Arprocarb [2, 3]: 5% |

| Molecule | Vapour pressure [1] | Dissolution capacity for DIOXACARB ([2]; at 20° C, solute Dioxacarb) [weight %] | Dissolving capacity for Dioxacarb ([2]; at 20° C, solute Dioxacarb) | further results |
| --- | --- | --- | --- | --- |
| CC(C)O [Isopropanol] | 44 Torr | 4.5 | 4.5% | Dissolution capacity for ARPROCARB ([2]; at 20° C, solute Arprocarb): 30 weight %; Dissolving capacity for Arprocarb [2, 3]: approximately 30% |
| OCC(O)CO [Glycerol] | < 0.0001 Torr | 0.6 | – | – |
| C1CCOC1 [Tetrahydrofuran] | 176 Torr | 33.5 | 33.5% | Dissolution capacity for ARPROCARB ([2]; at 20° C, solute Arprocarb): 50 weight %; Dissolving capacity for Arprocarb [2, 3]: approximately 50% |
| CCCCOC(C)=O [Butylacetate] | 11 Torr | – | – | Dissolution capacity for DIOXACARB [2]: 5 weight % |
| CCC(N)(CO)CO [2-Amino-2-ethyl-1,3-propanediol] | 0.01 Torr | 2.4 | – | – |
| Tetrachlorodiphenyle | < 0.001 Torr | 1.3 | 1.3% | Vapour pressure ([1]; listed as Tetrachlorodiphenyl): below 0.001 Torr; Vapour pressure ([1]; listed as tetrachlorodiphenyl): < 0.005 Torr |
| ClC=C(Cl)Cl [Trichloroethylene] | 74 Torr | 2 | approximately 2% | – |
| CC(C)=O [Acetone] | 225 Torr | – | – | Dissolution capacity for DIOXACARB [2]: 28 weight %; Dissolving capacity for Dioxacarb [2]: 28% |
| CCCCCO [Amylalcohol] | 2.5 Torr | 2.6 | 2.6% | – |
| CCCCOCCOCCOCCCC [5,8,11-Trioxapentadecane, 5,8,11-Trioxapenta-decane] | 0.002 Torr | 3.2 | – | – |
| CCO [Ethanol] | – | – | – | Dissolution capacity for ARPROCARB [2]: 0.3 weight %; Dissolution capacity for DIOXACARB [2]: 0.2 weight %; Dissolving capacity for Arprocarb [2]: 40%; Dissolving capacity for Dioxacarb [2]: 8% |
| CCCCCl [1-Chlorobutane] | 102 Torr | 2 | 2% | – |
| CCCC(=O)OC [Methylbutyrate] | 34 Torr | 8 | – | – |
| CCCCC [Pentane] | 513 Torr | – | – | Dissolution capacity for ARPROCARB [2]: 0.3 weight %; Dissolution capacity for DIOXACARB [2]: 0.2 weight %; Dissolving capacity for Arprocarb [2]: 0.3%; Dissolving capacity for Dioxacarb [2]: approximately 0.2% |
| CCCCC(CC)COC(=O)CCCCC(=O)OCC(CC)CCCC (centres unmarked) [Di(2-ethylhexyl)adipate)] | 0.007 Torr | 2.0 | – | Vapour pressure ([1]; listed as Di(2-ethyl-hexyl) adipate): ~0.007 Torr; Vapour pressure ([1]; listed as di(ethyl-2-hexyl) adipate): < 0.005 Torr; Dissolution capacity for ARPROCARB ([2]; at 20° C, solute Arprocarb): 2.8 weight %; Dissolving capacity for Arprocarb [2, 3]: 2.8% |
| CCCCCCCCCCCCCCCCCl [1-Chlorohexadecane] | < 0.0001 Torr | 0.7 | 0.7% | Vapour pressure ([1]; listed as 1-chlorohexadecane): < 0.005 Torr; Vapour pressure ([1]; listed as Chlorohexadecane): below 0.0001 Torr; Dissolving capacity for Arprocarb of the 1:1 mixture with 5-(3,6,9-trioxa-un-decyl-2-oxy)-1,3-benzodioxole ([2]; at 20° C, 1:1 mixture with T.U.O.B.): 2%; Dissolution capacity for ARPROCARB ([2]; at 20° C, solute Arprocarb): 0.4 weight %; Dissolving capacity for Arprocarb [2, 3]: 0.4% |
| CCOC(=O)CC [Ethylpropionate] | 37 Torr | 9 | – | – |
| CCC(=O)OC [Methylpropionate] | 83 Torr | 12 | – | – |
| CCCCCCCC(=O)O [Octanoic acid] | 0.002 Torr | 1.5 | – | – |
| CCCCCCCCCCCCCC(=O)OC(C)C [Isopropylmyristate] | – | 0.3 | 0.3% | Vapour pressure ([1]; listed as Isopropyl myristate): ca. 0.001 Torr; Vapour pressure ([1]; listed as isopropylmyristate): < 0.005 Torr; Dissolution capacity for ARPROCARB ([2]; at 20° C, solute Arprocarb): 1.3 weight %; Dissolving capacity for Arprocarb [2, 3]: 1.3% |
